Laboratory results from patent US20160184274A1, “Methods for inhibiting mesenchymal phenotype after epithelial-to-mesenchymal transition” (Fibrostatin, S.L., priority 2014, published 2016).

Key:
[1] = system: patient-derived cisplatin-resistant mesenchymal NSCLC cells; details: WO/2014/006020; cited from earlier work
[2] = biological target: T1, multimeric extracellular GPBP (Homo sapiens, UniProt Q9Y5P4); test: In vitro phosphorylation assay with multimeric extracellular GPBP; format: biochemical; details: T12 50 μM; autophosphorylation, γ[32P]ATP; FIG. 2
T1 construct: made in house; host or cells: Sf9 insect cells (baculovirus), purified from culture medium
T1 sequence (Q9Y5P4 1-624): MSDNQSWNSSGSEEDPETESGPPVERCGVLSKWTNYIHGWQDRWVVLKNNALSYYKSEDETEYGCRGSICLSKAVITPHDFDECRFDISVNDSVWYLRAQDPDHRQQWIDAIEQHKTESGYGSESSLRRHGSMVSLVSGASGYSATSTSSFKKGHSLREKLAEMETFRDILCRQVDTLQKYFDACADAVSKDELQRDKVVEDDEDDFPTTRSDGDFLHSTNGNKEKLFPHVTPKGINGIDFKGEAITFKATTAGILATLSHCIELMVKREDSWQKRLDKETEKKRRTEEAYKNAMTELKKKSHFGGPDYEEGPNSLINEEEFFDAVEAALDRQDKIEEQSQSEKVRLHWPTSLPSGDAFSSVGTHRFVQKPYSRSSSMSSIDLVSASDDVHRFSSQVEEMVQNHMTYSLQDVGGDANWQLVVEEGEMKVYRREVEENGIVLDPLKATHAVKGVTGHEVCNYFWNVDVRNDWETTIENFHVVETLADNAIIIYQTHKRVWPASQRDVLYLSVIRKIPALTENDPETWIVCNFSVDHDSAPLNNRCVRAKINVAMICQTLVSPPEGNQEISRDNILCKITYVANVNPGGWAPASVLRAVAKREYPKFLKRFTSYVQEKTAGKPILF
Procedure: FIG. 2. […] Multimeric extracellular and trimeric intracellular GPBP were purified by affinity chromatography and subsequent gel filtration chromatography, and used for in vitro phosphorylation assays in absence (−) or presence (+) of T12 (50 μM). Reactions were subjected to SDS-PAGE, Western blot onto PVDF membrane and autoradiography, and further protein detected with anti-FLAG primary antibodies. Autoradiography and anti-FLAG® bands were quantified with WCIF IMAGEJ® software, and the normalized kinase activity estimated. Shown are normalized kinase activities. […] Samples were analyzed in triplicate and the data represents the Mean (±SEM) of three independent assays.
FLAG®-tagged GPBP was expressed using Bac-to-Bac® Baculovirus Expression System. […] Finally, purified protein was quantified with Bio-Rad Protein Assay and stored at −20° C. […]
Typically, about 270 ng of purified FLAG®-GPBP protein, either extracellular multimer or intracellular trimer, were incubated in presence or absence of T12 […] in a kinase assay buffer containing 25 mM disodium β-glycerophosphate, 8 mM MgCl2, 0.5 mM EDTA, 0.5 mM EGTA, 1 mM DTT, 5 mM MnCl2 during 10 min at 37° C. […] Then reactions were stopped with SDS-PAGE loading buffer and heat (95° C., 3 min) and analyzed by SDS-PAGE, electro-transference to PVDF membrane (Merck Millipore) and autoradiography. […]

normalized kinase activity of GPBP [2]: targeted extracellular GPBP multimer
SMILES: COc1ccc(-c2ccc(-c3cccc(C)c3)c(C)c2)c(CCC(=O)O)c1 [T12, 3-[4″-methoxy-3,2′-dimethyl-(1,1′;4′,1″)terphenyl-2″-yl] propionic acid]
toxicity [1]: high-toxicity
